Source: the NIST ThermoML archive (doi:10.1016/j.jct.2015.08.014)
± gives the expanded uncertainty stated by the source.

Assays:
[1] = 101.33 kPa, Liquid; for viscosity: Capillary tube (Ostwald / Ubbelohde) method; for mass density: Vibrating tube method
[2] = xn = mol fraction of the nth substance listed; conditions: 100 kPa, Liquid, x2 = 0; for viscosity: Capillary tube (Ostwald / Ubbelohde) method; for mass density: Vibrating tube method

O=C1CCCO1 [γ-butyrolactone]
[1]
Conditions	mass density [kg/m3]	viscosity [mPa·s]
273.15 K	1149.15 ± 9.2	2.69 ± 0.06
278.15 K	1144.23 ± 9.2	2.43 ± 0.05
283.15 K	1139.31 ± 9.1	2.21 ± 0.05
288.15 K	1134.4 ± 9.1	2.02 ± 0.04
293.15 K	1129.49 ± 9	1.86 ± 0.04
298.15 K	1124.59 ± 9	1.71 ± 0.04
303.15 K	1119.68 ± 9	1.58 ± 0.03
308.15 K	1114.78 ± 8.9	1.47 ± 0.03
313.15 K	1109.87 ± 8.9	1.37 ± 0.03
318.15 K	1104.96 ± 8.8	1.28 ± 0.03
323.15 K	1100.05 ± 8.8	1.2 ± 0.03
328.15 K	1095.14 ± 8.8	–
333.15 K	1090.22 ± 8.7	–

O=C1CCCO1 [γ-butyrolactone] + CCCC[N+]1(C)CCCC1.N#CN=C=[N-]
[2]
Conditions	mass density [kg/m3]	viscosity [mPa·s]
273.15 K	1149.15 ± 9.2	2.69 ± 0.06
283.15 K	1139.31 ± 9.1	2.21 ± 0.05
293.15 K	1129.49 ± 9	1.86 ± 0.04
298.15 K	1124.59 ± 9	1.71 ± 0.04
303.15 K	1119.68 ± 9	1.58 ± 0.03
313.15 K	1109.87 ± 8.9	1.37 ± 0.03
323.15 K	1100.05 ± 8.8	1.2 ± 0.03
